Consider four molecules from ChEMBL document CHEMBL5614370, “Data-oriented protein kinase drug discovery” (Eur J Med Chem, 2024).

A word on the IC50: it is the concentration that inhibits the measured activity by half.

Assay [1] addresses Hepatocyte growth factor receptor (Homo sapiens, UniProt P08581). Kind of assay: Inhibition of HGF receptor (unknown origin).
Assay [2] deals with Macrophage colony-stimulating factor 1 receptor (Homo sapiens, UniProt P07333). Description: Inhibition of CSF1R (unknown origin).
Sequence of Macrophage colony-stimulating factor 1 receptor (P07333 whole entry, canonical isoform): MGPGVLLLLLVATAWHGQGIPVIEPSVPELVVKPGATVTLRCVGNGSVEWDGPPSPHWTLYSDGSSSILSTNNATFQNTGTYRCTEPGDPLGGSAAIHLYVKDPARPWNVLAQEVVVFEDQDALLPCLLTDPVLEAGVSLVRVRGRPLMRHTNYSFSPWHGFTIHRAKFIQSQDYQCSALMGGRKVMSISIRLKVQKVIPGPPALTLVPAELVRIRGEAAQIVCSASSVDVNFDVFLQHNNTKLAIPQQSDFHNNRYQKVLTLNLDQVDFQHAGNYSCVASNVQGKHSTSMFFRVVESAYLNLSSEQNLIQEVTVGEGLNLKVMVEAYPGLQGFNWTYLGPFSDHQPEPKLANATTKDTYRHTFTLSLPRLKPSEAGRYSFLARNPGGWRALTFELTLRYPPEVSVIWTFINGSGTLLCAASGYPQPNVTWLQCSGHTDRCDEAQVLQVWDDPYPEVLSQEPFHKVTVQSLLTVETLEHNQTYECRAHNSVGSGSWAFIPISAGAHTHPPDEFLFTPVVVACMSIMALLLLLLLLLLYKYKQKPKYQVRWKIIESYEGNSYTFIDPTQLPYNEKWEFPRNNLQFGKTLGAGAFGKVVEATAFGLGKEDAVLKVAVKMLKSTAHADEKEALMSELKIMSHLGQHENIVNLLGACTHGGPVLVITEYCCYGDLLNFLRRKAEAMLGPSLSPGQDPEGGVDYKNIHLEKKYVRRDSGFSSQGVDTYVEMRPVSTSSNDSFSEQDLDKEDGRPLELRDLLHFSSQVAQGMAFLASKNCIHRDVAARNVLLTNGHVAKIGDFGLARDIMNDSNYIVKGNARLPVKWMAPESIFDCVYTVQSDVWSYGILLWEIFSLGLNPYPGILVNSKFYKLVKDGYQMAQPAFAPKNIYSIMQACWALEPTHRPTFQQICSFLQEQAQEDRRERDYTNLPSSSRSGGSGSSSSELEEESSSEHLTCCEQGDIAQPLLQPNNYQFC
Assay [3] concerns the target Phosphatidylinositol 4,5-bisphosphate 3-kinase catalytic subunit alpha isoform (Homo sapiens, UniProt P42336). Description: Inhibition of PI3Kalpha (unknown origin).

Sequence of Phosphatidylinositol 4,5-bisphosphate 3-kinase catalytic subunit alpha isoform (P42336 whole entry, canonical isoform): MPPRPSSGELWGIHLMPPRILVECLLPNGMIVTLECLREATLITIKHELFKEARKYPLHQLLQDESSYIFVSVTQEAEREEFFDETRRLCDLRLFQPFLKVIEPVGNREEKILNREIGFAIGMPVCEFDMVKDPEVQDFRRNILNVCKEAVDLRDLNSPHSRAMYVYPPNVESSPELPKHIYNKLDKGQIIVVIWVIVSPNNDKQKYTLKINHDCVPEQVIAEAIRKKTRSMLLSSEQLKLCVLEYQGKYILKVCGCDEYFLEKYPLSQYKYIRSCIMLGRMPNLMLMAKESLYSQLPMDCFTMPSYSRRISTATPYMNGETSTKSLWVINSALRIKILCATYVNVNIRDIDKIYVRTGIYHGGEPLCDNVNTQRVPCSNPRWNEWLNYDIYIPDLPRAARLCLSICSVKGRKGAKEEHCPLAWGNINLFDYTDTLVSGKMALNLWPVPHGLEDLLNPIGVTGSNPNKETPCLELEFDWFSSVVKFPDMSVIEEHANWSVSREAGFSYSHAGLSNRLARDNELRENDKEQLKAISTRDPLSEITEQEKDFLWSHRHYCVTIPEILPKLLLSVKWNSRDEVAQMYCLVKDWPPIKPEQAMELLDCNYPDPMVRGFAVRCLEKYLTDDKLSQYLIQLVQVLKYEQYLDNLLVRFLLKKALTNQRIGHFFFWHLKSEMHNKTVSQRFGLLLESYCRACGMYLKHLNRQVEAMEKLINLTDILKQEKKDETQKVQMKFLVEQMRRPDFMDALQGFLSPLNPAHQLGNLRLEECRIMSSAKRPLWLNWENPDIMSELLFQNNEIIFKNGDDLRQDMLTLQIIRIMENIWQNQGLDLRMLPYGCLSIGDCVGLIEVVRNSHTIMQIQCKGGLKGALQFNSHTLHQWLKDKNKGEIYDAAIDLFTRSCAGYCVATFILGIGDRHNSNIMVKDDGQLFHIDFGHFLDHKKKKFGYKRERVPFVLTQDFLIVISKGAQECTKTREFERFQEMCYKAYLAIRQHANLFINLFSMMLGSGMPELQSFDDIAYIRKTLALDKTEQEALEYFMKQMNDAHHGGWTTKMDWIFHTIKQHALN
Sequence of Hepatocyte growth factor receptor (P08581 whole entry): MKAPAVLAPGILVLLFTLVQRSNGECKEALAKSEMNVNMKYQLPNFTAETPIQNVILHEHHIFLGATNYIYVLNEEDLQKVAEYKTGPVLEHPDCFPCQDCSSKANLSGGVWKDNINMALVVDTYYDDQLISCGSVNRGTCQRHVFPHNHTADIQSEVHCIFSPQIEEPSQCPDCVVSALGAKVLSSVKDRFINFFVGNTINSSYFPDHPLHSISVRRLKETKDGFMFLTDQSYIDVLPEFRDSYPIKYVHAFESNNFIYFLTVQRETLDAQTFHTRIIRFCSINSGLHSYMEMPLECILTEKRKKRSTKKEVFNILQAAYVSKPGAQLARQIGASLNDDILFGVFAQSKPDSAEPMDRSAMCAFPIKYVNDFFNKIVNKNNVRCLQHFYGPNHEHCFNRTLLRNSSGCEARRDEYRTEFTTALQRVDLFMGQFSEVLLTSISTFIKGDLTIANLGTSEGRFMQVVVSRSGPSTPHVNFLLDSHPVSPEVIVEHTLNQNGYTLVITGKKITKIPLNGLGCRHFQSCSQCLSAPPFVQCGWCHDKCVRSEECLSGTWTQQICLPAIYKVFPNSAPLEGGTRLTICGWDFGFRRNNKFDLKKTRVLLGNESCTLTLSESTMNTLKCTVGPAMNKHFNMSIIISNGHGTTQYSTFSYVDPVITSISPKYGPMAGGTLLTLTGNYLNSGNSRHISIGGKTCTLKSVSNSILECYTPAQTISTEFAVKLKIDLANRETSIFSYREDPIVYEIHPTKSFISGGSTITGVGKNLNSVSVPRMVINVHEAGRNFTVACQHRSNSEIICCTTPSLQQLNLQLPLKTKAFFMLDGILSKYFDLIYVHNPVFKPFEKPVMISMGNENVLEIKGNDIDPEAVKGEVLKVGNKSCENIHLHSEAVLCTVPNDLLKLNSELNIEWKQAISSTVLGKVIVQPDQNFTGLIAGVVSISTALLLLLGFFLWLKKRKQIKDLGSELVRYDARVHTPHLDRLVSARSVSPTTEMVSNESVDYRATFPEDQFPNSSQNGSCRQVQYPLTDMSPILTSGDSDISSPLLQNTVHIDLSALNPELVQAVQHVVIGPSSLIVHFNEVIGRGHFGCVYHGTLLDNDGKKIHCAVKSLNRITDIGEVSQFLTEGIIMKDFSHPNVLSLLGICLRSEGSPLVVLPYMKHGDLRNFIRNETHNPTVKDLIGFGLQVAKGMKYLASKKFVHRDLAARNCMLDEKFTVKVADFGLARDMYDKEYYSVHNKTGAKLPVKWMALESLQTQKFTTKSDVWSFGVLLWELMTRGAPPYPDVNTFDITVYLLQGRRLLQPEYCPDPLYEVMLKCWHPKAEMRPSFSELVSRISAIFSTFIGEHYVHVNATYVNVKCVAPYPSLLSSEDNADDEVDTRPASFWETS

Turning to `C1=CN(c2ccccc2)CC(CNc2ccc(Oc3ccncc3)cc2)=C1`, the IC50 in assay [1] was 8.91 nM.

The molecule `C1=C(c2cc(C3CNCNC3)ccc2NCc2ncc[nH]2)CCCC1` had an IC50 in assay [2] of 2.51 nM.

Turning to `c1n[nH]c(-c2nc3c(s2)CCOc2cc(C4CNC4)ccc2-3)n1`, the IC50 in assay [3] was 1.91 nM.

The molecule `c1n[nH]c(-c2nc3c(s2)CCOc2cc(-c4cn[nH]c4)ccc2-3)n1` showed an IC50 in assay [3] of 0.269 nM.
